In PubChem BioAssay AID1159563 (GlaxoSmithKline (GSK), 2015) one finds IC50 data, which are given here for 34 molecules.

Usually IC50 stands for the concentration at which inhibition is half-maximal.

Active and inactive are the calls of the source. The rule behind the calls is not given here. Where only a bound is given, the exact number is not on record here.

This assay deals with HepG2 cytotoxicity. Nature of the assay: HepG2 cell cytotoxicity, cytotoxicity control (AID 1159563).

Turning to `CCOc1ccc(CC(=O)N2c3ccccc3CC2C(=O)NC)cc1` (centres undefined), the IC50 is > 100 µM (inactive). Then `CC(CCc1ccccc1)NC(=O)CN(Cc1ccccn1)Cc1ccccn1` (centres undefined), with > 160 µM (inactive). On to `CC(C)(C)Nc1nc(-c2ccccn2)nc2ccccc12`, for which the IC50 is 20 µM. Then `Cc1cc(N(C)C)nc2ccc(Cc3cnc(N)nc3N)cc12`, with 32 µM.

Regarding `COc1ccccc1-c1c(C)[nH]c2nc(N)nc(C)c12`, the IC50 was > 100 µM (inactive). For `Cc1cc2ncn(-c3ccc([N+](=O)[O-])cc3C#N)c2cc1C` the value was > 100 µM (inactive); for `CC(C(=O)Nc1ccc(Br)cc1)N1CCN(c2ccc([N+](=O)[O-])cc2)CC1` (centres undefined), > 100 µM (inactive); for `O=C(NCCc1cccnc1)c1ccc(-c2ccccc2F)o1`, > 100 µM (inactive). For `CC1=NN(C(=O)CCn2cnc([N+](=O)[O-])n2)C(O)(C(F)(F)F)C1` (centres undefined) the value was > 100 µM (inactive); for `CC(=O)NCCNc1cc(-c2ccnc(Nc3cccc(Cl)c3)n2)ccn1`, 25 µM; for `CC(=O)Nc1ccc(-c2cnc(N)c(-c3nc4ccc(F)cc4[nH]3)c2)cc1`, 10 µM. Regarding `COc1ccc(C(C)N(C)c2ncc3c(N)nc(N)nc3n2)cc1F` (centres undefined), the IC50 is > 100 µM (inactive). For `O=C(Nc1nc(-c2ccc(F)cc2)cs1)c1ccc([N+](=O)[O-])s1` the value was 13 µM; for `COc1ccc2nccc([C@H](O)CN3CC[C@H](NC(=O)c4ccc(Br)cc4)[C@@H](O)C3)c2n1`, > 100 µM (inactive). As to `Cc1cc(N2CCc3ccccc3C2)nc(Nc2ccc(S(=O)(=O)N3CCOCC3)cc2)n1`, the IC50 was > 100 µM (inactive). For `C[C@@H](Oc1cc(-n2cnc3ccc(C(O)CO)cc32)sc1C(N)=O)c1ccccc1C(F)(F)F` (some centres undefined) the value was > 10 µM (inactive); for `COc1cc2c(cc1OC)[C@H]1[C@@H](C)c3ccc(OC)c(OC)c3CN1CC2`, > 100 µM (inactive). Then `CCN(CC)S(=O)(=O)c1ccc(C)c(NC(=O)c2cc(Cl)c3c(c2)OCO3)c1`, with > 100 µM (inactive). For the molecule `N#Cc1cnc(Nc2cccc(CCN3CCOCC3)c2)nc1Nc1ccccc1C(N)=O`, the IC50 was 25 µM.

Turning to `CC(C)Oc1cccc(N2CCC(C(=O)N3CCCN(C(C)C)CC3)CC2)c1`, the IC50 was > 100 µM (inactive). Then `O=c1ccn(-c2ccc([N+](=O)[O-])cc2Cl)c2ccc(F)cc12`, with > 100 µM (inactive); and `O=C(Nc1ccc(C(=O)N2CCCC2c2ccc3c(c2)OCCCO3)cc1)c1ccco1` (centres undefined), with > 100 µM (inactive).

Turning to `O=C(NC(c1ccc(Cl)cc1)c1cnccn1)C1CCN(C(=O)Nc2cccc(C(F)(F)F)c2)CC1` (centres undefined), the IC50 is > 100 µM (inactive). Then `CC1(Oc2cncc(Cl)c2)CCN(Cc2cc3ccccc3[nH]2)C1` (centres undefined), with 32 µM; and `O=C(CN(Cc1ccccn1)Cc1ccccn1)NCc1ccc(-c2csnn2)cc1`, with 25 µM; and `Cn1ccnc1CN1CCc2[nH]cnc2C1c1ccccc1OCc1ccccc1` (centres undefined), with > 100 µM (inactive). Then `COc1ccc(Nc2nccc(N(C)c3n[nH]c4c(F)cccc34)n2)cc1S(C)(=O)=O`, with 20 µM; and `c1ccc(CNc2cccc3ccncc23)cc1`, with > 100 µM (inactive); and `Cc1ccccc1NS(=O)(=O)c1ccc2[nH]cc(C(=O)NC3CCCC3)c(=O)c2c1`, with 25 µM. Consider `NCc1csc(Nc2cc(Oc3ccccc3)ncn2)n1`, for which the IC50 was > 100 µM (inactive).

In the case of `CC(C)S(=O)(=O)c1ccc(-c2cnc(N)c3cc(-c4ccnc(N)n4)ccc23)cc1`, the IC50 is 16 µM. Then `Cc1ccnc(NS(=O)(=O)c2ccc(NC(=O)c3ccc([N+](=O)[O-])s3)cc2)n1`, with 16 µM; and `COc1ccc2ncc(Cl)c(CCN3CC[C@H](NCc4cc5c(cn4)OCS5)[C@@H](O)C3)c2n1`, with 25 µM. For `O=C(CN(Cc1ccccn1)Cc1ccccn1)NCc1ccc2c(c1)OCO2` the value was > 160 µM (inactive).
